Experimental data reported in publication PMC6113202.
Blank lines part the entries; values can stand above or below the molecule they belong to.

Experiments:
[1] = tested on: Scram (DNA, duplex) GTCGTTCTGATCCAGGTGATGTAGTCGACG/CGTCGACTACATCACCTGGATCAGAACGAC; test: fluorescence turn-on; conditions: KCl 150 mM in p53 buffer (80% v/v); NaCl 50 mM in DNA buffer (15% v/v); NaPi pH 7.2, DTT, Tris-HCl, 5% DMSO; room temperature; dye 100 nM
[2] = tested on: hairpin p21 RE (DNA, hairpin) GAAGAAGACTGGGCATGTCTAAAAAAGACATGCCCAGTCTTCTTC; test: fluorescence titration; conditions: KCl 150 mM in p53 buffer (80% v/v), NaCl 50 mM in DNA buffer (15% v/v), per base pair, approximate, NaPi pH 7.2, DTT, Tris-HCl, room temperature, dye 100 nM
[3] = tested on: RGC (DNA, duplex) CACATGCCTTGCCTGGACTTGCCT/AGGCAAGTCCAGGCAAGGCATGTG; test: fluorescent intercalator displacement by p53; conditions: KCl 150 mM in p53 buffer (80% v/v); NaCl 50 mM in DNA buffer (15% v/v); 1 μM DNA, 10 μM dye; dye displaced by p53; NaPi pH 7.2, DTT, Tris-HCl, 5% DMSO
[4] = tested on: p21 (DNA, duplex) TAGAGGAAGAAGACTGGGCATGTCTGGGCA/TGCCCAGACATGCCCAGTCTTCTTCCTCTA; test: fluorescent intercalator displacement by p53; conditions: KCl 150 mM in p53 buffer (80% v/v); NaCl 50 mM in DNA buffer (15% v/v); 1 μM DNA, 10 μM dye; dye displaced by p53; NaPi pH 7.2, DTT, Tris-HCl, 5% DMSO
[5] = tested on: IGF-BP3 (DNA, duplex) CTAGAAAACAAGCCACCAACATGCTTGCATG/CATGCAAGCATGTTGGTGGCTTGTTTTCTAG; test: fluorescence turn-on heat map; conditions: KCl 150 mM in p53 buffer (80% v/v); NaCl 50 mM in DNA buffer (15% v/v); 4 μM dye, 250 nM DNA; NaPi pH 7.2, DTT, Tris-HCl, 5% DMSO; room temperature
[6] = tested on: pDINP1 (DNA, duplex) TTATAGAACTTGGGGGAACATGTTTACCAA/TTGGTAAACATGTTCCCCCAAGTTCTATAA; test: fluorescence turn-on heat map; conditions: KCl 150 mM in p53 buffer (80% v/v); NaCl 50 mM in DNA buffer (15% v/v); 4 μM dye, 250 nM DNA; NaPi pH 7.2, DTT, Tris-HCl, 5% DMSO; room temperature
p53-WT [7] = molecular target: T1, p53-WT (UniProt P04637 94-360); test: fluorescent intercalator displacement; AO-R; strongest displacement of panel; 1 uM DNA, 10 uM dye; 5% DMSO, 80% p53 buffer (25 mM NaPi pH 7.2, 150 mM KCl, 4 mM DTT), 15% DNA buffer (10 mM Tris-HCl pH 8.0, 50 mM NaCl); room temperature (stated for rotor-DNA mixtures); conditions: protein: recombinant; tags: N-terminal His6; chain copies: 4; blunt
p53-WT [8] = molecular target: T1, p53-WT; test: fluorescent intercalator displacement; AO-R; almost no displacement; 1 uM DNA, 10 uM dye; 5% DMSO, 80% p53 buffer (25 mM NaPi pH 7.2, 150 mM KCl, 4 mM DTT), 15% DNA buffer (10 mM Tris-HCl pH 8.0, 50 mM NaCl); room temperature (stated for rotor-DNA mixtures); conditions: protein: recombinant; tags: N-terminal His6; chain copies: 4; blunt
p53-WT [9] = molecular target: T1, p53-WT; test: fluorescent intercalator displacement; AO-R; p53 concentration-dependent; 1 uM DNA, 10 uM dye; 5% DMSO, 80% p53 buffer (25 mM NaPi pH 7.2, 150 mM KCl, 4 mM DTT), 15% DNA buffer (10 mM Tris-HCl pH 8.0, 50 mM NaCl); room temperature (stated for rotor-DNA mixtures); conditions: protein: recombinant; tags: N-terminal His6; chain copies: 4; blunt

T1 sequence (P04637 94-360): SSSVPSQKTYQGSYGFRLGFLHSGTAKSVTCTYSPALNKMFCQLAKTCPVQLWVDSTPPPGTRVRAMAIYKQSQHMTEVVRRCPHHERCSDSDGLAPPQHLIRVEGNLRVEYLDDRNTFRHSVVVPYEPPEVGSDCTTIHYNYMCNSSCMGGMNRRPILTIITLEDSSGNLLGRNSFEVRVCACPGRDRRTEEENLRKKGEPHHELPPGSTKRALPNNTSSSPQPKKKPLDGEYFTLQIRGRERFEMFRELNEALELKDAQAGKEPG

- binding [1]: yes
Molecule: CC[n+]1c(-c2ccccc2)c2cc(N)ccc2c2ccc(N)cc21

- Kd [2]: 12.5 ± 1.0 µM
- binding [1]: yes
Molecule: CN(C)c1ccc2cc3ccc(N(C)C)cc3nc2c1

- binding [1]: yes
Molecule: CN1C(=Cc2cc[n+](C)c3ccccc23)Sc2ccccc21

- binding [1]: yes
Molecule: CN1C(=Cc2cc[n+](CCCN)c3ccccc23)Sc2ccccc21

- binding [5]: yes
- binding [1]: yes
- binding [6]: yes
Molecule: C[n+]1ccc(/C=C/c2ccc3c(c2)c2cc(/C=C/c4cc[n+](C)cc4)ccc2n3-c2ccccc2)cc1

The remaining lines, values behind:

Molecule: CN(C)c1ccc2cc3ccc(N(C)C)c(/C=C(\C#N)C(=O)O)c3nc2c1
- Kd [2]: 4.8 ± 0.8 µM
- binding [3]: yes
- binding [1]: yes
- binding [4]: yes

Molecule: C[n+]1ccc(/C=C/c2ccc(-n3c4ccc(/C=C/c5cc[n+](C)cc5)cc4c4cc(/C=C/c5cc[n+](C)cc5)ccc43)cc2)cc1
- binding [5]: yes
- binding [6]: yes

B1: Con-A (dsDNA)
DNA 1: GGGCATGTCCGGGCATGTCC
DNA 2: GGACATGCCCGGACATGCCC
- binding result (p53-WT [7]): binds

B2: Scram (dsDNA)
DNA 1: GTCGTTCTGATCCAGGTGATGTAGTCGACG
DNA 2: CGTCGACTACATCACCTGGATCAGAACGAC
- binding result (p53-WT [8]): no binding

B3: RGC RE (dsDNA)
DNA 1: CACATGCCTTGCCTGGACTTGCCT
DNA 2: AGGCAAGTCCAGGCAAGGCATGTG
- binding result (p53-WT [9]): binds

B4: p21 RE (dsDNA)
DNA 1: TAGAGGAAGAAGACTGGGCATGTCTGGGCA
DNA 2: TGCCCAGACATGCCCAGTCTTCTTCCTCTA
- binding result (p53-WT [9]): binds
